Common to all, as to assay type: cell-based
Assay [1] has as its system A549 (human lung carcinoma). The experiment in a line: MTT cell proliferation (cytotoxicity) assay, A549. To be noted: A549 cells, MTT, 2 days incubation, triplicate; read-out: IC50 or concentration required to achieve 50% growth inhibition compared to untreated cells, A549 (lung). As for the experimental part:
(§1) MTM and CRM derivatives were assayed against a collection of tumor cell lines. Tumor cell lines were obtained from The American Type and Culture Collection (ATCC), and the lines were the following; A549 (human lung carcinoma); H116 (colon adenocarcinoma); PSN1 (pancreatic adenocarcinoma) and T98G (human glyoblastoma). Cells were cultured in medium RPM1 containing 2 mM glutamine, 50 IU/ml penicillin and 50 μg/ml streptomycin. Culture medium for cell lines A549 and H116 was supplemeted with 5% FBS and culture medium for cell lines PSN1 and T98G was supplemented with 10% FBS.
(§2) The evaluation of compound cytotoxicity was carried out by determining cell viability using an assay based on metabolic reduction of 3-(4,5-dimethyl-2-thiazolyl)-2,5-diphenyltetrazolium bromide (MTT; Sigma Chemical Co. St. Louis, Mo.). This reduction reaction is carried out by mitochondrion succinate dehydrogenase of viable cells and produce formazan, a chromogenic compound that can be quantified by spectrophotometry.
(§3) The assay was carried out following the procedure described by Mosmann (J. Immunol. Methods 1983, 65, 55). Tumor cells were incubated in 96 well microtitre plates containing 200 μl of complete medium (with 4×10^3 cells/well for A549 and 6×10^3 cells/well for H116, PSN1 and T98G). Serial dilutions in DMSO of the test compounds (10 μg/ml, 5 μg/ml, 1 μg/ml, 0.5 μg/ml, 0.1 μg/ml, 0.05 μg/ml, 0.01 μg/ml, y 0.005 μg/ml) were added and after 2 days incubation (at 37° C., 5% CO2 and high relative humidity), 50 μl of MTT (1 mg/ml in PBS) was added to each well. The plates were incubated at 37° C. for 2 hours and the reduction product (formazan) was resuspended in 100 μl of DMSO and quantified at 490 nm with a spectrophotometer.

Assay [2] has as its system H116 (colon adenocarcinoma). In words: MTT cell proliferation (cytotoxicity) assay, H116. To be noted: H116 cells, MTT, 2 days incubation, triplicate; read-out: IC50 or concentration required to achieve 50% growth inhibition compared to untreated cells, H116 (colon). As for the experimental part:
as §1, §2, §3

The test system of assay [3] is PSN1 (pancreatic adenocarcinoma). In words: MTT cell proliferation (cytotoxicity) assay, PSN1. To be noted: read-out: IC50 or concentration required to achieve 50% growth inhibition compared to untreated cells, PSN1 (pancreatic adenocarcinoma); PSN1 cells, MTT, 2 days incubation, triplicate; read-out: IC50 or concentration required to achieve 50% growth inhibition compared to untreated cells, PSN1 (prostate). As for the experimental part: as §1, §2, §3

Assay [4] concerns T98G (human glyoblastoma). The experiment in a line: MTT cell proliferation (cytotoxicity) assay, T98G. To be noted: T98G cells, MTT, 2 days incubation, triplicate; read-out: IC50 or concentration required to achieve 50% growth inhibition compared to untreated cells, T98G (glyoblastoma). As for the experimental part:
as §1, §2, §3

The results in this text go back to patent US8772253B2, “Aureolic acid derivatives, the method for preparation thereof and the uses” (Entrechem, S.L., priority 2009, dated 2014).

SMILES strings stand for the structures.

In the case of `CO[C@H](C(=O)C(C)=O)[C@@H]1Cc2cc3cc(O[C@H]4C[C@@H](O[C@H]5C[C@@H](O)[C@H](O)[C@@H](C)O5)[C@H](O)[C@@H](C)O4)c(C)c(O)c3c(O)c2C(=O)[C@H]1O[C@H]1C[C@@H](O[C@H]2C[C@@H](O[C@H]3C[C@](C)(O)[C@H](O)[C@@H](C)O3)[C@@H](O)[C@@H](C)O2)[C@H](O)[C@@H](C)O1` [MTM-SDK, reference compound], the IC50 in assay [1] stood at 9.4 nM; in assay [2], 9.4 nM; in assay [3], 9.4 nM; in assay [4], 47.4 nM.

Regarding `CO[C@@H]([C@@H]1Cc2cc3cc(O[C@H]4C[C@@H](O[C@H]5C[C@@H](O)[C@H](O)[C@@H](C)O5)[C@H](O)[C@@H](C)O4)c(C)c(O)c3c(O)c2C(=O)[C@H]1O[C@H]1C[C@@H](O[C@H]2C[C@@H](O[C@H]3C[C@](C)(O)[C@H](O)[C@@H](C)O3)[C@@H](O)[C@@H](C)O2)[C@H](O)[C@@H](C)O1)[C@@H](O)C(C)=O` [MTM-SK, reference compound], the IC50 in assay [1] was 9.4 nM; in assay [2], 9.4 nM; in assay [3], 9.4 nM; in assay [4] it was 47.3 nM.
